Data as given in ChEMBL document CHEMBL5331093, “Identification of "dual-site"-binding diarylpyrimidines targeting both NNIBP and the NNRTI adjacent site of the HIV-1 reverse transcriptase” (Eur J Med Chem, 2023).
Values after ≈ are worked out from the molar mass of the structure shown.

Experiments:
[1] = target: Human immunodeficiency virus type 1 reverse transcriptase (Human immunodeficiency virus 1, UniProt Q72547); test: Inhibition of wild type recombinant HIV-1 reverse transcriptase assessed as reduction of biotin-dUTP incorporation into […] using ABTS as substrate incubated for 1 hrs by ELISA analysis
[2] = test system: Human immunodeficiency virus 1; test: Anti-HIV activity against NNRTI-resistant HIV-1 harboring RT L100I mutant infected in human MT4 cells assessed as inhibition of virus-induced cytopathic effect incubated for 5 days by MTT assay; assay type: functional, organism-based; conditions: Human immunodeficiency virus 1, MT4, 120 h
[3] = test system: Human immunodeficiency virus 1; test: Anti-HIV activity against NNRTI-resistant HIV-1 harboring RT K103N mutant infected in human MT4 cells assessed as inhibition of virus-induced cytopathic effect incubated for 5 days by MTT assay; assay type: functional, organism-based; conditions: Human immunodeficiency virus 1, MT4, 120 h
[4] = test system: Human immunodeficiency virus 1; test: Anti-HIV activity against NNRTI-resistant HIV-1 harboring RT Y188L mutant infected in human MT4 cells assessed as inhibition of virus-induced cytopathic effect incubated for 5 days by MTT assay; assay type: functional, organism-based; conditions: Human immunodeficiency virus 1, MT4, 120 h
[5] = test system: Human immunodeficiency virus 1; test: Anti-HIV activity against NNRTI-resistant HIV-1 harboring RT E138K mutant infected in human MT4 cells assessed as inhibition of virus-induced cytopathic effect incubated for 5 days by MTT assay; assay type: functional, organism-based; conditions: Human immunodeficiency virus 1, MT4, 120 h
[6] = Selectivity index, ratio of CC50 cytotoxicity against human MT4 cells to EC50 for anti-HIV activity against wild type HIV-1 IIIB infected in human MT4 cells; assay type: toxicity, cell-based; conditions: read-out: Ratio CC50/EC50
[7] = test system: Human immunodeficiency virus 1; test: Anti-HIV activity against wild type HIV-1 IIIB infected in human MT4 cells assessed as inhibition of virus-induced cytopathic effect incubated for 5 days by MTT assay; assay type: functional, organism-based; conditions: Human immunodeficiency virus 1, IIIB, MT4, 120 h
[8] = Resistance factor, ratio of EC50 for anti-HIV activity against NNRTI-resistant HIV-1 RES056 harboring RT K103N/Y181C double mutant infected in human MT4 cells to EC50 for anti-HIV activity against wild type HIV-1 IIIB infected in human MT4 cells; assay type: functional
[9] = test system: Human immunodeficiency virus 1; test: Anti-HIV activity against NNRTI-resistant HIV-1 RES056 harboring RT K103N/Y181C double mutant infected in human MT4 cells assessed as inhibition of virus-induced cytopathic effect incubated for 5 days by MTT assay; assay type: functional, organism-based; conditions: Human immunodeficiency virus 1, RES056, MT4, 120 h
[10] = test system: Human immunodeficiency virus 1; test: Anti-HIV activity against NNRTI-resistant HIV-1 harboring RT F227L/V106A double mutant infected in human MT4 cells assessed as inhibition of virus-induced cytopathic effect incubated for 5 days by MTT assay; assay type: functional, organism-based; conditions: Human immunodeficiency virus 1, MT4, 120 h
[11] = Selectivity index, ratio of CC50 cytotoxicity against human MT4 cells to EC50 for anti-HIV activity against NNRTI-resistant HIV-1 RES056 harboring RT K103N/Y181C double mutant infected in human MT4 cells; assay type: toxicity, cell-based; conditions: read-out: Ratio CC50/EC50
[12] = test system: Human immunodeficiency virus 1; test: Anti-HIV activity against NNRTI-resistant HIV-1 harboring RT Y181C mutant infected in human MT4 cells assessed as inhibition of virus-induced cytopathic effect incubated for 5 days by MTT assay; assay type: functional, organism-based; conditions: Human immunodeficiency virus 1, MT4, 120 h
[13] = Cytotoxicity against human MT4 cells assessed as reduction in cell viability incubated for 5 days by MTT assay; assay type: toxicity, cell-based; conditions: time 5 day
[14] = Aqueous solubility of the compound at pH 2.0; assay type: physicochemical; conditions: aqueous medium
[15] = Aqueous solubility of the compound at pH 7.0; assay type: physicochemical; conditions: aqueous medium
[16] = Aqueous solubility of the compound at pH 7.4; assay type: physicochemical; conditions: aqueous medium

Row | Compound | IC50 [1] [nM] | EC50 [2] [nM] | EC50 [3] [nM] | EC50 [4] [nM] | EC50 [5] [nM] | selectivity ratio [6] | EC50 [7] [nM] | Ratio EC50 [8] | EC50 [9] [nM] | EC50 [10] [nM] | selectivity ratio [11] | EC50 [12] [nM] | CC50 at 120 h [13] [nM] | solubility [14] [µg/mL] | solubility [15] [µg/mL] | solubility [16] [µg/mL]
1 | Cc1cc(C#N)cc(C)c1Oc1nc(Nc2ccc(C#N)cc2)ncc1SCC(=O)NCCCN1CCOCC1 | 113 | 25.8 | 2.78 | 94.6 | 38.1 | 6930 | 3.41 | 113 | 386 | 231 | 61 | 30.9 | – | – | – | –
2 | C#CCNC(=O)/C=C/c1cnc(Nc2ccc(C#N)cc2)nc1Oc1c(C)cc(C#N)cc1C | – | – | – | – | – | 27100 | – | 248 | – | – | 109 | – | – | – | – | –
3 | Cc1cc(C#N)cc(C)c1Oc1nc(Nc2ccc(C#N)cc2)ncc1C#CC(=O)NCCCN1CCOCC1 | – | – | – | – | – | 4600 | 12.9 | 268 | 3440 | – | 17 | – | 59200 | – | – | –
4 | Cc1cc(C#N)cc(C)c1Oc1nc(Nc2ccc(C#N)cc2)ncc1C#CC(=O)NCCOCCO | – | – | – | – | – | 890 | 10.5 | 78 | 818 | – | 11 | – | 9380 | – | – | –
5 | C#CCNC(=O)C#Cc1cnc(Nc2ccc(C#N)cc2)nc1Oc1c(C)cc(C#N)cc1C | – | 125 | 15.2 | 155 | 27.2 | 1140 | 6.15 | 132 | 814 | 452 | 9 | 87.2 | 7020 | – | – | –
6 | COC(=O)C1CCC(NC(=O)C#Cc2cnc(Nc3ccc(C#N)cc3)nc2Oc2c(C)cc(C#N)cc2C)CC1 (centres undefined) | 185 | 131 | 20.4 | 171 | 26.9 | 1800 | 6.38 | 104 | 664 | 3210 | 17 | 101 | 11500 | – | – | –
7 | COCCNC(=O)C#Cc1cnc(Nc2ccc(C#N)cc2)nc1Oc1c(C)cc(C#N)cc1C | 19 | 6.06 | 2.36 | 14.3 | 6.27 | 6650 | 2.04 | 18 | 35.7 | 61.1 | 379 | 9.6 | 13600 | 22.8 (≈ 48.9 µM) | 8.27 (≈ 17.7 µM) | 7.84 (≈ 16.8 µM)
8 | Cc1cc(C#N)cc(C)c1Oc1nc(Nc2ccc(C#N)cc2)ncc1C#CC(=O)NCCN1CCOCC1 | – | – | – | – | – | > 2000 | 120 | 957 | – | – | > 2 | – | > 240000 | – | – | –
9 | Cc1cc(C#N)cc(C)c1Oc1nc(Nc2ccc(C#N)cc2)ncc1C#CC(=O)NCCN1CCN(S(C)(=O)=O)CC1 | – | – | – | – | – | 440 | 11.1 | 70 | 774 | – | – | – | 4890 | – | – | –
10 | CCOC(=O)C#Cc1cnc(Nc2ccc(C#N)cc2)nc1Oc1c(C)cc(C#N)cc1C | 102 | 10.9 | 5.2 | 10.3 | 9.72 | 7940 | 4.35 | 31 | 133 | 15.9 | 260 | 13.6 | 34500 | – | – | –
11 | Cc1cc(C#N)cc(C)c1Oc1nc(Nc2ccc(C#N)cc2)ncc1C#CC(=O)NCCN1CCN(C(=O)OC(C)(C)C)CC1 | – | – | – | – | – | 1220 | 18.3 | 219 | 4010 | – | 6 | – | 22400 | – | – | –
12 | Cc1cc(C#N)cc(C)c1Oc1nc(Nc2ccc(C#N)cc2)ncc1C#CC(=O)NC1CC1 | 52 | 111 | 13.3 | 236 | 14.9 | 1110 | 4.78 | 66 | 313 | 376 | 17 | 36.9 | 5300 | – | – | –
13 | O=C1Nc2ccc(Cl)cc2[C@@](C#CC2CC2)(C(F)(F)F)O1 [EFAVIRENZ] | – | 33.4 | – | 199 | 3.52 | – | 2.36 | – | 136 | 154 | – | 4.78 | > 6340 | – | – | –
14 | Cc1cc(C#N)cc(C)c1Oc1nc(Nc2ccc(C#N)cc2)nc(N)c1Br [ETRAVIRINE] | – | 5.72 | 2.78 | – | 5.32 | – | – | – | 23.4 | 16.8 | – | – | > 4590 | – | – | –
